Experimental data taken from article PMC9180621, “Preparation of Novel Pyrazolo[4,3-e]tetrazolo[1,5-b][1,2,4]triazine Sulfonamides and Their Experimental and Computational Biological Studies” (International Journal of Molecular Sciences, 2022).

Legend:
BxPC-3 cells = test: Dual acridine orange/ethidium bromide (AO/EB) fluorescent staining, apoptosis; type: cell-based, human; conditions: for increase in the apoptotic cell fraction: BxPC-3, both tested concentrations (IC50, 2xIC50), 24 and 48 h incubation
Procedure: (§1) Data are presented as mean percentage of apoptotic cells (early and late apoptotic) ± SD values. The differences between the experimental samples and vehicle control were evaluated by the ANOVA test followed by Tukey’s test (p < 0.05). Experiments were performed in triplicate. For flow cytometry analysis with Annexin V-FITC staining, the approximate number of analyzed cells was (N = 1 × 10^4), contrasting with the dual acridine orange/ethidium bromide (AO/EB) fluorescent staining (N = 200). Acridine orange/ethidium bromide (AO/EB) staining is used to detect nuclear alterations and the development of apoptotic bodies, which are both indicative of apoptosis. Acridine orange penetrates into living cells, emitting green fluorescence after intercalation into DNA. The second dye, ethidium bromide, emits red fluorescence in cells with an altered cell membrane. The cells are divided into three categories as follows: living cells (green nucleus with red orange cytoplasm); apoptotic (green irregularly nuclei with chromatin condensation or fragmentation); and necrotic cells (uniformly orange-stained cell nuclei). Programmed cell death is measured by counting the number of cells that undergo apoptosis under a fluorescent microscope. BxPC-3 and PC-3 cells were seeded at an appropriate density on 12-well plates (Table 9). […] Following the incubation period, cells were incubated with fluorochromes (AO/EB: 100 µM; 1:1, v/v) for 5 min at 37 °C in the dark. Viable, apoptotic, or necrotic cells were distinguished using this method based on differential uptake of fluorescent DNA-binding dyes (AO/EB) with the structural aspect of chromatin condensation in the stained nucleus. Cells were analyzed using a fluorescence microscope (Olympus BX60 F5 Olympus Optical Co., Ltd., Nagano, Japan) at 360 nm. The results were obtained from three independent experiments.

PC-3 cells = test: as above; type: cell-based, human; conditions: PC-3, 48 h incubation, control 1.5 ± 0.7%; for mean % of apoptotic cells: AO/EB, ± SD; for % of apoptotic cells, both tested concentrations: IC50 and 2xIC50, AO/EB
Procedure: as §1

HCT-116 cells = test: MTT assay, cell viability; type: cell-based; conditions: Homo sapiens, HCT-116, 72 h incubation, ± SD
Procedure: (§2) A statistical program (Graphpad Prism 7) was used to analyze obtained data (MTT test). The dose–response analysis was performed to estimate the inhibitory concentration (IC50) of the tested compounds. The IC50 value is defined as a concentration of the tested compound that leads to a reduction in cell pool viability by 50% compared to the negative control (accepted as 100%). % cell viability=Absorbance value of treated cells−Absorbance value of blank/Absorbance value of untreated cells−Absorbance value of blank×100%
To estimate cell viability following 72 h incubation with the tested MM-compounds (MM134, MM136, MM137, and MM139), the MTT test was used according to the PN-EN ISO 10993-5. It is a quantitative method based on the tetrazolium yellow dye MTT [3(4,5-dimethyl-2-thiazolyl)-2,5-diphenyl-2H-tetrazolium bromide], which is converted by living cells to a purple product, formazan, the concentration of which was measured colorimetrically. The MTT assay was performed according to the procedure described by Mosmann with modifications. At a density of approximately 8 × 10^3 cells per 100 µL/well, 96-well plates were seeded. Following the given incubation period in controlled conditions (37 °C; 5% CO2), cells were exposed to different concentrations of tested compounds in DMSO (range 0.05–3 µM) in a volume of 100 µL medium per well. Final solvent concentration of DMSO was < 0.5% v/v. The experimental design included vehicle controls and blanks (wells without cells).
(§3) After 72 h of incubation of cells with tested MM-compounds, 20 µL of MTT tetrazolium salt (5 mg/mL in PBS) was added to each well, and plates were incubated once again in a humidified atmosphere for 3 h (37 °C; 5% CO2). Following the incubation time, the solutions were removed and 100 µL of DMSO was added to dissolve the formazan complexes. Subsequently, a spectrophotometer (microplate reader Power Wave XS BioTek Instruments, Inc., Winooski, VT, USA) reading was performed at 570 nm. The experiments were performed in duplicates.

[1] = system: cancer cell lines (BxPC-3, HCT-116, PC-3); test: MTT assay, cancer cell lines together; type: cell-based; conditions: Homo sapiens; range over BxPC-3, HCT-116, PC-3; 72 h MTT; read-out: IC50 values in cancer cells
Procedure: as §2
To estimate cell viability following 72 h incubation with the tested MM-compounds (MM134, MM136, MM137, and MM139), the MTT test was used according to the PN-EN ISO 10993-5. It is a quantitative method based on the tetrazolium yellow dye MTT [3(4,5-dimethyl-2-thiazolyl)-2,5-diphenyl-2H-tetrazolium bromide], which is converted by living cells to a purple product, formazan, the concentration of which was measured colorimetrically. […]
as §3, with “Following the incubation time, the solutions were removed and 100 µL of DMSO was added to dissolve the formazan complexes.” left out, “The experiments were performed in duplicates.” left out

Row | IC50 (HCT-116 cells) [nM] | IC50 [1] [nM] | SMILES | increase in the apoptotic cell fraction (BxPC-3 cells) | mean % of apoptotic cells (PC-3 cells; 2xIC50 concentration) [%] | mean % of apoptotic cells (PC-3 cells; IC50 concentration) [%] | increase in apoptotic fraction (BxPC-3 cells; BxPC-3, IC50 concentration, 24 h incubation) | % of apoptotic cells, both tested concentrations (PC-3 cells)
1 | – | – | Cc1nn(-c2ccc(S(=O)(=O)NCCN3CCOCC3)cc2)c2nn3nnnc3nc12 [MM134] | statistically significant increase | 11 ± 1.41 | 8.5 ± 0.7 | – | –
2 | 140 ± 20 | 110 to 160 | Cc1nn(-c2ccc(S(=O)(=O)N3CCN(C)CC3)cc2)c2nn3nnnc3nc12 [MM137] | – | 24 ± 1.41 | 15 ± 2.82 | did not induce a significant increase | statistically significant increase
3 | 350 ± 50 | – | Cc1nn(-c2ccc(S(=O)(=O)N3CCCCC3)cc2)c2nn3nnnc3nc12 [MM139] | statistically significant increase | 12.5 ± 0.7 | 13.5 ± 3.53 | – | statistically significant increase
